Experimental findings from ChEMBL document CHEMBL6134902, “Novel tacrine-based multi-target directed Ligands: Enhancing cholinesterase inhibition, NMDA receptor antagonism, and CNS bioavailability for Alzheimer's disease treatment” (Eur J Med Chem, 2025) are described below.

Series [1] is described as follows: Lipophilicity, LogD of compound at pH 10.5 by chromatography. The series is classed as physicochemical. The conditions noted are these: buffer.
A short description of series [2]: Lipophilicity, LogD of compound at pH 7.4 by chromatography. It counts as physicochemical. Conditions: buffer.
Series [3] in a line: Lipophilicity, LogD of compound at pH 2.6 by chromatography. It counts as physicochemical. The conditions noted are these: buffer.
The nature of series [4]: in vitro. Conditions: human, liver microsomes.
For series [5] the following is noted: human, microsomes, 0.75 h, 3 µM.
A short description of series [6]: in vitro. Conditions: human, liver microsomes. The source holds these as a separate data set. A general note: Liver microsomes are vesicles of endoplasmic reticulum, rich in cytochrome P450 enzymes.
A short description of series [7]: Tmax in plasma of male Balb/c mouse at 15 mg/kg, ip measured up to 120 mins. It counts as ADME, organism-based.
The nature of series [8]: AUC (infinity) in plasma of male Balb/c mouse at 15 mg/kg, ip measured up to 120 mins. It counts as ADME, organism-based.
A short description of series [9]: Drug uptake in plasma of male BALB/c mouse at 15 mg/kg, ip measured after 48 hrs. Conditions: in vivo. It counts as ADME, organism-based.
Series [10] in a line: in vivo. Conditions: male, Balb/c, mouse, brain/plasma, ip, 15 mg/kg.
A short description of series [11]: AUC (0 to 120 mins) in plasma of male Balb/c mouse at 15 mg/kg, ip measured up to 120 mins. The series is classed as ADME, organism-based.
Series [12] is described as follows: Cmax in brain of male Balb/c mouse at 15 mg/kg, ip measured up to 120 mins. The series is classed as ADME, organism-based.
A short description of series [13]: AUC (0 to 120 mins) in brain of male Balb/c mouse at 15 mg/kg, ip measured up to 120 mins. It counts as ADME, organism-based.
Series [14] is described as follows: Cmax in plasma of male Balb/c mouse at 15 mg/kg, ip measured up to 120 mins. The series is classed as ADME, organism-based.
Series [15] can be described thus: Tmax in brain of male Balb/c mouse at 15 mg/kg, ip measured up to 120 mins. The series is classed as ADME, organism-based.
Series [16] in a line: Drug uptake in brain of male BALB/c mouse at 15 mg/kg, ip measured after 48 hrs. The series is classed as ADME, organism-based. The conditions noted are these: in vivo.
Series [17] in a line: AUC (infinity) in brain of male Balb/c mouse at 15 mg/kg, ip measured up to 120 mins. The series is classed as ADME, organism-based.
The nature of series [18]: Toxicity in male BALB/c mouse administered intraperitoneally measured for 48 hrs. Conditions: in vivo, route ip.

One may read the chromatographic logD as a lipophilicity value derived from retention on a column. Low readings indicate lower lipophilicity, high ones higher lipophilicity. Molecule `Nc1c2c(nc3ccc(-c4ccc(Cl)s4)cc13)CCCC2` displayed a CHI of 37.9. The molecule also showed a chromatographic logD in [1] of 5.42. The molecule also displayed a chromatographic logD in [2] of 4.86. Further, the chromatographic logD in series [3] was determined as 2.28.

A word on the microsomal CLint: it is the rate of metabolic loss divided by the concentration. A higher microsomal CLint goes with faster metabolism. What is called half-life is the time needed for the level to fall by half in the phase considered. A high value points to slow loss. For `Cc1ccc(-c2ccc3nc4c(c(N)c3c2)CCCC4)o1`, the CHI is given as 29.5. Also, the microsomal CLint at 0.75 h, 3 µM in [4] was 239 µL/min/mg. For the same molecule, the chromatographic logD in [1] was found to be 4.58. Besides, the chromatographic logD in series [2] was found to be 4.06. In series [5], the Drug metabolism is listed as 215.5 10^6No_unit. In series [3], this molecule displayed a chromatographic logD of 1.94. Besides, the half-life at 0.75 h, 3 µM in series [6] stood at 5.8 min.

Molecule `Nc1c2c(nc3ccc(Oc4ccccc4)cc13)CCCC2` registered a CHI of 27.6. Further, the microsomal CLint at 0.75 h, 3 µM in [4] came out at 4.2 µL/min/mg. For the same molecule, the chromatographic logD in [1] worked out at 4.49. The chromatographic logD in series [2] turned out to be 3.82. For the same molecule, in series [5], the Drug metabolism is 473.1 10^6No_unit. Also, the chromatographic logD in series [3] came out at 1.83. The half-life at 0.75 h, 3 µM in series [6] worked out at 330 min.

Molecule `CN(C)c1cccc(-c2ccc3nc4c(c(N)c3c2)CCCC4)c1` yielded a CHI of 31.6. Moreover, the chromatographic logD in series [1] was 4.86. In series [2], this molecule gave a chromatographic logD of 4.5. In series [3], this molecule registered a chromatographic logD of 1.4.

`Nc1c2c(nc3ccc(-c4ccsc4)cc13)CCCC2` displayed a CHI of 29.9. In addition, the chromatographic logD in series [1] is 4.48. The chromatographic logD in series [2] was determined as 3.8. This molecule also gave a chromatographic logD in series [3] of 1.78.

As for `COc1ccc2nc3c(c(N)c2c1)CCCC3`, the microsomal CLint at 0.75 h, 3 µM in [4] turned out to be 42.2 µL/min/mg. Besides, in series [5], the Drug metabolism is 13.2 10^6No_unit. Further, in [6], the half-life at 0.75 h, 3 µM was found to be 32.8 min.

A word on the Tmax: it is the time from dosing to the highest level. As a reminder, the AUC(0-inf) is total exposure, with the tail of the curve extrapolated. By Kp is commonly meant the ratio of the level in a tissue or fluid to that in plasma or blood. As usually defined, the AUC(0-t) is the area under the concentration-time curve up to a stated or last time point. A higher AUC(0-t) goes with more exposure. In general, Cmax refers to the highest concentration seen after dosing. The NOAEL is the highest tested level that showed no adverse finding. The molecule `Cc1csc(-c2ccc3nc4c(c(N)c3c2)CCCC4)c1` came in with a CHI of 33. Further, the microsomal CLint at 0.75 h, 3 µM in series [4] was 224 µL/min/mg. Also, in series [7], the Tmax is 15 min. In series [1], this molecule gave a chromatographic logD of 4.96. Further, in series [8], the total exposure AUC(0-inf) was 1080 nM·h. Besides, the Drug uptake entry in series [9] was “Active”. Moreover, in [2], the chromatographic logD turned out to be 4.41. Also, in series [10], the Kp at 2 h stood at 2.36. In [11], the AUC(0-t) at 2 h is 775 nM·h. In [12], this molecule registered a Cmax of 1.47 µM. In series [13], this molecule showed an AUC(0-t) at 2 h of 1830 nM·h. The Drug metabolism in series [5] is on record as 207 10^6No_unit. Besides, the Cmax in series [14] was 0.945 µM. Further, the Tmax in series [15] is 26.2 min. This molecule had a chromatographic logD in series [3] of 2.12. Moreover, the Drug uptake entry in series [16] is on record as “Active”. The half-life at 0.75 h, 3 µM in [6] was 6.2 min. In series [17], this molecule had an AUC(0-inf) of 1960 nM·h. Further, the NOAEL at 48 h in series [18] came to 15 mg/kg.

Take `Nc1c2c(nc3ccc(-c4ccoc4)cc13)CCCC2`: the CHI is on record as 26.2. In [1], this molecule had a chromatographic logD of 4.08. This molecule also yielded a chromatographic logD in [2] of 3.43. This molecule returned a chromatographic logD in series [3] of 1.59.

On to `Nc1c2c(nc3ccc(-c4ccc(Cl)nc4)cc13)CCCC2`, for which the CHI is recorded as 26. In addition, the chromatographic logD in [1] worked out at 4.15. Further, the chromatographic logD in series [2] amounted to 3.65. Moreover, in series [3], the chromatographic logD is 1.6.

Take `Nc1c2c(nc3ccc(-c4ccncc4)cc13)CCCC2`: the CHI was 20.2. The microsomal CLint at 0.75 h, 3 µM in series [4] came out at 46.2 µL/min/mg. Further, in [1], the chromatographic logD stood at 3.05. Further, the chromatographic logD in series [2] turned out to be 3.52. For the same molecule, the Drug metabolism in [5] is 172.8 10^6No_unit. This molecule came in with a chromatographic logD in [3] of 0.47. Further, the half-life at 0.75 h, 3 µM in series [6] was 30 min.

In the case of `COc1ncc(-c2ccc3nc4c(c(N)c3c2)CCCC4)cn1`, the CHI is recorded as 19.1. Moreover, in series [1], the chromatographic logD is 3.2. Further, the chromatographic logD in series [2] was found to be 2.94. In series [3], this molecule displayed a chromatographic logD of 1.26.

With `COc1cc(-c2ccc3nc4c(c(N)c3c2)CCCC4)ccn1`, the CHI is 25.3. In [1], the chromatographic logD is 3.99. The chromatographic logD in [2] worked out at 3.69. The molecule also had a chromatographic logD in series [3] of 1.63.

`Nc1c2c(nc3ccc(-c4cncnc4)cc13)CCCC2` registered a CHI of 14.7. Moreover, the microsomal CLint at 0.75 h, 3 µM in series [4] amounted to 14.8 µL/min/mg. Further, in series [1], the chromatographic logD is 2.59. Moreover, the chromatographic logD in series [2] was found to be 2.73. In addition, the Drug metabolism in series [5] is on record as 200.7 10^6No_unit. Besides, in [3], the chromatographic logD was determined as 0.99. Also, in series [6], the half-life at 0.75 h, 3 µM came to 93.7 min.

Take `Nc1c2c(nc3ccc(-c4ccc(F)nc4)cc13)CCCC2`: the CHI was found to be 23. Further, the chromatographic logD in series [1] was 3.81. For the same molecule, the chromatographic logD in series [2] came to 3.24. For the same molecule, the chromatographic logD in [3] was found to be 1.44.

`COc1ncc(-c2ccc3nc4c(c(N)c3c2)CCCC4)c(OC)n1` gave a CHI of 12.2. The same molecule came in with a chromatographic logD in series [1] of 1.4. In series [2], the chromatographic logD stood at 1.2. This molecule displayed a chromatographic logD in [3] of 0.65.

As to `CC(C)COc1cccc(-c2ccc3nc4c(c(N)c3c2)CCCC4)c1`, the CHI worked out at 38.8. This molecule also registered a chromatographic logD in [1] of 5.79. The molecule also registered a chromatographic logD in series [2] of 5.58. In series [3], this molecule came in with a chromatographic logD of 2.87.

For `Nc1c2c(nc3ccc(-c4cccs4)cc13)CCCC2`, the CHI was determined as 29.6. This molecule displayed a chromatographic logD in [1] of 4.54. Moreover, in series [2], the chromatographic logD stood at 3.85. In [3], this molecule came in with a chromatographic logD of 1.77.
